# ChEMBL document CHEMBL3046549, “Comparative quantitative structureactivity relationship study of some 1-aminocyclopentyl-3-carboxyamides as CCR2 inhibitors using stepwise MLR, FA-MLR, and GA-PLS” (Med Chem Res, 2012)
# Target: C-C chemokine receptor type 2 (Homo sapiens, UniProt P41597)
# Experiment: Antagonist activity at CCR2 (unknown origin)
# C-C chemokine receptor type 2, sequence (P41597 whole entry): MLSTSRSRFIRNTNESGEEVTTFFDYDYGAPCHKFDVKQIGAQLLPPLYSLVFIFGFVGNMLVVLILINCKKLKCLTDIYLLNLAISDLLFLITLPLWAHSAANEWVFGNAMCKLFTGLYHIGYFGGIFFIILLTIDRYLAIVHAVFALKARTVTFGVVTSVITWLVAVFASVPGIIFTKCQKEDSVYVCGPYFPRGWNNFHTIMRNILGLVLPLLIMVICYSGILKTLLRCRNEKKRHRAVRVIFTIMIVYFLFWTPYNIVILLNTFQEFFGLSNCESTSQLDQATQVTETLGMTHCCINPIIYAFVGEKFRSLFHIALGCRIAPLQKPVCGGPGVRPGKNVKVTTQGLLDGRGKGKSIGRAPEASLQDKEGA
row,Structure (SMILES),IC50 [µM]
1,CC(C)[C@]1(C(=O)NCc2cc(C(F)(F)F)cc(C(F)(F)F)c2)CC[C@@H](NC2CCOCC2(C)C)C1 (stereo partly specified),0.028
2,CC(C)[C@]1(C(=O)NCc2cc(C(F)(F)F)cc(C(F)(F)F)c2)CC[C@@H](NC2CCOCC2F)C1 (stereo partly specified),0.0511
3,CC(C)[C@]1(C(=O)NCc2cc(C(F)(F)F)cc(C(F)(F)F)c2)CC[C@@H](NC2CCOCC2C(F)(F)F)C1 (stereo partly specified),0.006
4,CC1COCCC1N[C@@H]1CC[C@@](C(=O)NCc2cc(C(F)(F)F)cc(C(F)(F)F)c2)(C(C)C)C1 (stereo partly specified),0.239
5,CCCC1COCCC1N[C@@H]1CC[C@@](C(=O)NCc2cc(C(F)(F)F)cc(C(F)(F)F)c2)(C(C)C)C1 (stereo partly specified),0.003
6,CC(C)[C@]1(C(=O)NCc2cc(C(F)(F)F)cc(C(F)(F)F)c2)CC[C@@H](NC2CCOCC2C2CC2)C1 (stereo partly specified),0.0078
7,CC(C)[C@]1(C(=O)NCc2cc(C(F)(F)F)cc(C(F)(F)F)c2)CC[C@@H](NC2CCOCC2O)C1 (stereo partly specified),0.123
8,CC(C)[C@]1(C(=O)NCc2cc(C(F)(F)F)cc(C(F)(F)F)c2)CC[C@@H](NC2CCCOC2)C1 (stereo partly specified),0.0046
9,CC1CC(N[C@@H]2CC[C@@](C(=O)NCc3cc(C(F)(F)F)cc(C(F)(F)F)c3)(C(C)C)C2)CCO1 (stereo partly specified),0.766
10,CC1COCC(C)C1N[C@@H]1CC[C@@](C(=O)NCc2cc(C(F)(F)F)cc(C(F)(F)F)c2)(C(C)C)C1 (stereo partly specified),0.23
11,CC(C)[C@]1(C(=O)NCc2cc(C(F)(F)F)cc(C(F)(F)F)c2)CC[C@@H](NC2CCSC2)C1 (stereo partly specified),0.022
12,CC(C)[C@]1(C(=O)NCc2cc(C(F)(F)F)cc(C(F)(F)F)c2)CC[C@@H](NC2CCOCC2)C1,0.056
13,CC(C)[C@]1(C(=O)NCc2cc(C(F)(F)F)cc(C(F)(F)F)c2)CC[C@@H](NC2CCSCC2)C1,0.036
14,CCC1COCCC1N[C@@H]1CC[C@@](C(=O)NCc2cc(C(F)(F)F)cc(C(F)(F)F)c2)(C(C)C)C1 (stereo partly specified),0.0015
15,CC(C)[C@]1(C(=O)NCc2cc(C(F)(F)F)cc(C(F)(F)F)c2)CC[C@@H](NC2CCOCC2(O)C(F)(F)F)C1 (stereo partly specified),0.0055
16,CC(C)[C@]1(C(=O)NCc2cc(C(F)(F)F)cc(C(F)(F)F)c2)CC[C@@H](NC2CCc3ccccc3C2)C1 (stereo partly specified),0.187
